From patent publication US10696996B2, “Biosynthesis of everninomicin analogs in Micromonospora carbonacea var aurantiaca” (VANDERBILT UNIVERSITY, priority 2015, dated 2020)
≈ marks a conversion by molar mass, not a printed value. Read-outs that look alike come from different tables or passages of the source.

Columns and labels:
[1] = test system: Staphyloccocus aureus subsp. aureus Rosenbach (ATCC 6538P); assay: broth microdilution assay (NCCLS), antibacterial activity; type: cell-based, Staphylococcus aureus; details: for MIC: S. aureus subsp. aureus Rosenbach, broth microdilution
Description: The antibacterial activity of purified everninomicins and conjugates was determined by the broth microdilution assay according to NCCLS guidelines using Staphyloccocus aureus subsp. aureus Rosenbach (ATCC 6538P) as the test organism.

[2] = target: T1, HygX (Streptomyces hygroscopicus, UniProt Q2MFS1); assay: tryptophan fluorescence quenching assay, hygromycin B binding to HygX; set-up: species or system S. hygroscopicus; details: 20° C.
T1 sequence (Q2MFS1 1-258): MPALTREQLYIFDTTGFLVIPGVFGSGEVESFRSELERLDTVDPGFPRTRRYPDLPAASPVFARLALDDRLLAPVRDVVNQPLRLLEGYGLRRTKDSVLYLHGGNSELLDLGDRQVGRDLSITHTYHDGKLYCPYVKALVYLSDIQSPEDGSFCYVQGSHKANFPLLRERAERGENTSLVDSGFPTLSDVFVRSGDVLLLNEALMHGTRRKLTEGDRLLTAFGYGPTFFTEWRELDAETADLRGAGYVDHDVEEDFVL
Description: The Kd of hygromycin B binding to HygX was determined by monitoring the quenching of intrinsic fluorescence from the single tryptophan residue of HygX upon hygromycin B binding. Using a Cary Eclipse Varian fluorescence spectrometer, sample fluorescence was measured at 20° C. with both emission and excitation slits set at 10 nm and detector voltage set to 800 V. The […] wavelength was set to 280 nm, and spectra collected were from 300 to 400 nm, with 350 nm used for calculating binding affinity. Each sample contained 990 μL of 0.5 μM HygX in 25 mM Tris (pH 7.4), 75 mM NaCl, 0.05 mM AKG, and 0.05 mM NiCl2, which was then mixed with 10 μL of hygromycin B (diluted in the above buffer) of varying concentrations. Spectra were measured in triplicate, and the experiment repeated three times. Because hygromycin B at higher concentrations has background fluorescence between 300 and 400 nm, the experiment was repeated using only buffer and subtracted from the measurement taken with HygX present. Change in fluorescence resulting from changing hygromycin B concentration was plotted against hygromycin B concentration and fit to a single binding-site model using Kaleidagraph Version 4.0.

[3] = test system: M. carbonacea; assay: nalidixic acid concentration test for conjugation, survival of M. carbonacea; type: cell-based, Micromonospora carbonacea var aurantiaca
[4] = test system: E. coli; assay: nalidixic acid concentration test for conjugation, growth of donor E. coli; type: cell-based, Escherichia coli
Description: M. carbonacea was grown on TSB agar (Oxoid™ Tryptone Soy Broth, 2% agarose) for 7 days at 30° C. Conjugal acceptor mycelia were prepared by inoculating a loop of mycelia into 10 mL of TSB medium in a 50 mL Falcon tube and incubating with shaking at 30° C. for 5 days. The culture was then centrifuged at 3000×g for 10 minutes and the pellet resuspended in 2 mL fresh TSB. 150 μL aliquots were transferred into sterile 1.5 mL Eppendorf tubes and homogenized using a sterile plastic cell homogenizer. Donor E. coli ET12567/pUZ8002 cells containing the gene replacement were prepared by inoculating 1% of a freshly prepared overnight LB culture into 10 mL LB medium in a 50 mL Falcon tube containing apramycin and kanamycin and grown to an OD600 of 0.4 at 37° C. with shaking. The culture was centrifuged at 3000×g for 10 minutes, and the pellet was washed three times with 10 mL fresh LB. After the final wash, the pellet was resuspended in 150 μL LB. 50 μL of donor E. coli was added to 150 μL of recipient M. carbonacea. The bacterial mixture was plated on AS1 agar (0.1% yeast extract, 0.5% soluble starch, 0.02% L-alanine, 0.02% L-arginine, 0.05% L-asparagine, 0.25% NaCl, 1% Na2SO4, 2% agarose at pH 7.5, supplemented with 10 mM MgCl2). The plates were then incubated at 37° C. for 1-2 hours until thoroughly dried. […]

[5] = Staphylococcus aureus, ATCC6538P, read-out: MIC

Molecule `CCC1OC(=O)C[C@@H](O)[C@H](C)[C@@H](OC2OC(C)CC(N(C)C)C2O)[C@@H](CC=[N+]([O-])[C@@]2(C)C[C@@H](O[C@@H]3C[C@H](O[C@@H]([C@H](O)CC(=O)O)[C@@H](C)O)O[C@H](C)[C@H]3OC(=O)c3c(C)c(Cl)c(O)c(Cl)c3OC)O[C@@H](C)[C@H]2OC)C[C@@H](C)C(=O)/C=C/[C@]2(C)O[C@H]2[C@@H]1C` (stereo partly shown) has an MIC [1, 5] of 1 mg/L (≈ 0.791 µM).
`COC[C@H]1O[C@@H](O[C@@H]2OC[C@@H]3O[C@@]4(OC[C@@H](OC(=O)c5c(C)cc(O)cc5O)[C@@H]5OCO[C@H]54)O[C@H]3[C@H]2O)[C@@H](OC)[C@@H](O)[C@@H]1O[C@@H]1O[C@H](C)[C@H](OC)[C@H](O[C@@H]2O[C@H](C)[C@H]3O[C@]4(C[C@@H](O)[C@H](O[C@H]5C[C@@H](O[C@H]6C[C@](C)([N+](=O)[O-])[C@@H](OC)[C@H](C)O6)[C@H](OC(=O)c6c(C)c(Cl)c(O)c(Cl)c6OC)[C@@H](C)O5)[C@@H](C)O4)O[C@]3(C)[C@@H]2O)[C@H]1O` [everninomicin A] gave an MIC [1, 5] of 1 mg/L (≈ 0.613 µM).
For `CNC1CC(N)C(O)C(OC2OC(CO)C(O)C3OC4(OC(C(N)CO)C(O)C(O)C4O)OC23)C1O` (stereo not shown) [hygromycin B], the Kd [2] was 3.4 ± 0.5 µM.
For `CCn1cc(C(=O)O)c(=O)c2ccc(C)nc21` [nalidixic acid], the “growth of M. carbonacea” value ([3]; nalidixic acid 12.5 μg/mL) was “substantially more”, the “growth of M. carbonacea” value ([3]; nalidixic acid 25 μg/mL) was “stunted the growth” and the “viability of M. carbonacea” value ([3]; nalidixic acid 50 μg/mL) was “not viable”. The “growth of E. coli” value ([4]; nalidixic acid 12.5 μg/mL) was “stunted” and the “growth of E. coli” value ([4]; nalidixic acid 25 μg/mL) was “stunted the growth”.
With everninomicin H the “activity against S. aureus” value ([1]; S. aureus) was “moderately active” and the MIC [1] was 16 mg/L.
